Results reported in ChEMBL document CHEMBL5365497, “Developing Novel Coumarin-Containing Azoles Antifungal Agents by the Scaffold Merging Strategy for Treating Azole-Resistant Candidiasis” (J Med Chem, 2023).
≈ marks a conversion by molar mass, not a printed value.

Key:
Assay type in all cases: functional
Candida albicans [1] = test: Antifungal activity against Candida albicans CPCC400616 assessed as fungal growth inhibition by CLSI based microdilution method
Candida albicans [2] = test: Antifungal activity against Candida albicans SC5314 assessed as fungal growth inhibition by CLSI based microdilution method
Candida parapsilosis = test: Antifungal activity against Candida parapsilosis assessed as fungal growth inhibition by CLSI based microdilution method; conditions: Lodderomyces parapsilosis
Nakaseomyces glabratus = test: Antifungal activity against Candida glabrata assessed as fungal growth inhibition by CLSI based microdilution method
Cryptococcus neoformans = test: Antifungal activity against Cryptococcus neoformans assessed as fungal growth inhibition by CLSI based microdilution method
Pichia kudriavzevii = test: Antifungal activity against Pichia kudriavzevii assessed as fungal growth inhibition by CLSI based microdilution method
Candida tropicalis = test: Antifungal activity against Candida tropicalis assessed as fungal growth inhibition by CLSI based microdilution method
Candida albicans [3] = test: Antifungal activity against fluconazole-resistant Candida albicans 17# assessed as fungal growth inhibition by CLSI based microdilution method
Candida albicans [4] = test: Antifungal activity against fluconazole-resistant Candida albicans 901 assessed as fungal growth inhibition by CLSI based microdilution method
Candida albicans [5] = test: Antifungal activity against fluconazole-resistant Candida albicans 904 assessed as fungal growth inhibition by CLSI based microdilution method
Candida albicans [6] = test: Antifungal activity against fluconazole-resistant Candida albicans 632 assessed as fungal growth inhibition by CLSI based microdilution method
Candida albicans [7] = test: Antifungal activity against fluconazole-resistant Candida albicans CaR assessed as fungal growth inhibition by CLSI based microdilution method

Structure (SMILES)	MIC (Candida albicans [1]) [µg/mL]	MIC (Candida albicans [2]) [µg/mL]	MIC (Candida parapsilosis) [µg/mL]	MIC (Nakaseomyces glabratus) [µg/mL]	MIC (Cryptococcus neoformans) [µg/mL]	MIC (Pichia kudriavzevii) [µg/mL]	MIC (Candida tropicalis) [µg/mL]	MIC (Candida albicans [3]) [µg/mL]	MIC (Candida albicans [4]) [µg/mL]	MIC (Candida albicans [5]) [µg/mL]	MIC (Candida albicans [6]) [µg/mL]	MIC (Candida albicans [7]) [µg/mL]
O=c1oc2c(Cl)cc(Cl)cc2cc1COC(Cn1ccnc1)c1ccc(Cl)cc1Cl (stereo not given)	> 128	128 (≈ 264 µM)	> 128	> 128	16 (≈ 33 µM)	> 128	> 128	–	–	–	–	–
O=c1ccc2cc(COC(Cn3cncn3)c3ccc(Cl)cc3Cl)ccc2o1 (stereo not given)	4 (≈ 9.61 µM)	0.25 (≈ 0.601 µM)	2 (≈ 4.8 µM)	32 (≈ 76.9 µM)	32 (≈ 76.9 µM)	16 (≈ 38.4 µM)	32 (≈ 76.9 µM)	–	–	–	–	–
C[C@@H](c1ncncc1F)[C@](O)(Cn1cncn1)c1ccc(F)cc1F [VORICONAZOLE]	–	–	–	–	–	–	–	128 (≈ 366 µM)	> 128	> 128	64 (≈ 183 µM)	> 128
O=c1oc2ccccc2cc1COC(Cn1ccnn1)c1ccc(Cl)cc1Cl (stereo not given)	128 (≈ 307 µM)	128 (≈ 307 µM)	> 128	> 128	32 (≈ 76.9 µM)	128 (≈ 307 µM)	> 128	–	–	–	–	–
O=c1ccc2cc(COC(Cn3cnnn3)c3ccc(F)cc3F)ccc2o1 (stereo not given)	1 (≈ 2.6 µM)	2 (≈ 5.2 µM)	16 (≈ 41.6 µM)	16 (≈ 41.6 µM)	64 (≈ 167 µM)	128 (≈ 333 µM)	0.5 (≈ 1.3 µM)	–	–	–	–	–
O=c1oc2ccc([N+](=O)[O-])cc2cc1COC(Cn1ccnc1)c1ccc(F)cc1F (stereo not given)	> 128	> 128	64 (≈ 150 µM)	32 (≈ 74.9 µM)	64 (≈ 150 µM)	128 (≈ 300 µM)	128 (≈ 300 µM)	–	–	–	–	–
O=c1oc2ccccc2cc1COC(Cn1ccnn1)c1ccc(F)cc1F (stereo not given)	> 128	128 (≈ 334 µM)	> 128	> 128	64 (≈ 167 µM)	64 (≈ 167 µM)	> 128	–	–	–	–	–
O=c1oc2ccccc2cc1COC(Cn1ccnc1)c1ccc(F)cc1F (stereo not given)	0.06 (≈ 0.157 µM)	0.03 (≈ 0.0785 µM)	< 0.25	1 (≈ 2.62 µM)	0.06 (≈ 0.157 µM)	0.5 (≈ 1.31 µM)	1 (≈ 2.62 µM)	2 (≈ 5.23 µM)	16 (≈ 41.8 µM)	2 (≈ 5.23 µM)	4 (≈ 10.5 µM)	0.5 (≈ 1.31 µM)
O=c1oc2c(Cl)cc(Cl)cc2cc1COC(Cn1ccnc1)c1ccc(F)cc1 (stereo not given)	> 128	> 128	> 128	> 128	128 (≈ 295 µM)	> 128	> 128	–	–	–	–	–
O=c1ccc2ccc(COC(Cn3cnnn3)c3ccc(Cl)cc3Cl)cc2o1 (stereo not given)	> 128	> 128	64 (≈ 153 µM)	64 (≈ 153 µM)	32 (≈ 76.7 µM)	> 128	128 (≈ 307 µM)	–	–	–	–	–
O=c1oc2ccccc2cc1COC(Cn1ccnc1)c1ccc(F)cc1 (stereo not given)	0.06 (≈ 0.165 µM)	0.03 (≈ 0.0823 µM)	< 0.25	1 (≈ 2.74 µM)	0.125 (≈ 0.343 µM)	1 (≈ 2.74 µM)	0.5 (≈ 1.37 µM)	2 (≈ 5.49 µM)	8 (≈ 22 µM)	4 (≈ 11 µM)	8 (≈ 22 µM)	0.5 (≈ 1.37 µM)
O=c1ccc2ccc(COC(Cn3ccnc3)c3ccc(F)cc3)cc2o1 (stereo not given)	2 (≈ 5.49 µM)	0.5 (≈ 1.37 µM)	16 (≈ 43.9 µM)	64 (≈ 176 µM)	4 (≈ 11 µM)	32 (≈ 87.8 µM)	4 (≈ 11 µM)	128 (≈ 351 µM)	64 (≈ 176 µM)	32 (≈ 87.8 µM)	32 (≈ 87.8 µM)	128 (≈ 351 µM)
O=c1ccc2ccccc2o1 [COUMARIN]	> 128	> 128	> 128	> 128	> 128	> 128	> 128	128 (≈ 876 µM)	> 128	> 128	> 128	> 128
O=c1oc2ccccc2cc1COC(Cn1cncn1)c1ccc(F)cc1F (stereo not given)	8 (≈ 20.9 µM)	0.25 (≈ 0.652 µM)	2 (≈ 5.22 µM)	8 (≈ 20.9 µM)	32 (≈ 83.5 µM)	16 (≈ 41.7 µM)	64 (≈ 167 µM)	–	–	–	–	–
O=c1oc2ccc(F)cc2cc1COC(Cn1ccnc1)c1ccc(F)cc1F (stereo not given)	1 (≈ 2.5 µM)	1 (≈ 2.5 µM)	0.5 (≈ 1.25 µM)	2 (≈ 5 µM)	0.5 (≈ 1.25 µM)	4 (≈ 9.99 µM)	8 (≈ 20 µM)	–	–	–	–	–
O=c1ccc2ccc(COC(Cn3ccnc3)c3ccc(F)cc3F)cc2o1 (stereo not given)	4 (≈ 10.5 µM)	0.25 (≈ 0.654 µM)	16 (≈ 41.8 µM)	64 (≈ 167 µM)	64 (≈ 167 µM)	64 (≈ 167 µM)	8 (≈ 20.9 µM)	128 (≈ 335 µM)	64 (≈ 167 µM)	32 (≈ 83.7 µM)	32 (≈ 83.7 µM)	128 (≈ 335 µM)
OB1OCc2cc(F)ccc21 [TAVABOROLE]	–	–	–	–	–	–	–	32 (≈ 211 µM)	32 (≈ 211 µM)	16 (≈ 105 µM)	16 (≈ 105 µM)	16 (≈ 105 µM)
